Assay results from patent US20100184596A1, “METHOD FOR THE CONTROL OF WEEDS IN TURF” (SYNGENTA CROP PROTECTION, INC., priority 2007, published 2010).

What was measured:
Format in all cases: in vivo
[1] = tested on: Taraxacum officinale (dandelion); assay: Weed control via post emergence spray, in perennial ryegrass/fine fescue mix (Table B5.5)
Experimental: (§1) The weed control efficacy of the compound of formula I was tested. The compound was applied via post emergence spray to a range of weeds, at various rates and spray treatment treatment regimes. Percentage weed control assessments were taken at various timepoints.

[2] = tested on: Trifolium repens (white clover); assay: Weed control via post emergence spray, in St. Augustinegrass v. Floratam (Table B5.4)
Experimental: as §1

Tall fescue = assay: Selective post-emergence herbicidal action, field trial Champaign (Table B1.1); settings: 22 days after application
Experimental: (§2) The selectivity of the compound of formula I in turf (removal of grassy and broadleaf weeds) has been tested in turfgrass varieties selected from Kentucky bluegrass, tall fescue and perennial ryegrass and in […] selected from clover (an aggressive perennial weed) and dandelion (a weed of perennial horticultural crops and gardens which may also be a problem in some annual crops, particularly where reduced tillage is practiced).
(§3) The trials were conducted in Champaign, Ill., U.S. (Table B1.1) and Hudson, N.Y., U.S. (Table B1.2) under field conditions. Turfgrasses were maintained at approximately a 2.5″ height, like a home lawn. Mixed turf and weed stands were present. The test compounds were applied with a CO2 pressurized backpack sprayer by spraying in the form of an aqueous suspension (prepared from a wettable powder) in a concentration of 210 to 280 g/ha. The plots were then mowed and irrigated as needed. After 22 and 28 days respectively, the test is visually evaluated (100%=total damage to plant; 0%=no damage to plant).

Perennial ryegrass = assay: as above; settings: 22 days after application
Experimental: as §2, §3

Clover = assay: as above; settings: 22 days after application
Experimental: as §2, §3

Kentucky blue grass = assay: as above; settings: 22 days after application
Experimental: as §2, §3

[3] = tested on: St. Augustinegrass v. Delmar; assay: Phytotoxicity via granule application (Table B3.1)

SMILES: COCCOCc1nc(C(F)(F)F)ccc1C(=O)C1=C(O)C2CCC(C2)C1=O (stereo not drawn) [Formula I, 4-Hydroxy-3-[2-(2-methoxyethoxymethyl)-6-trifluoromethylpyridine-3-carbonyl]-bicyclo[3.2.1]oct-3-en-2-one]
- % control ([1]; 1 appl, 140 g ai/ha, 14 DAT): 32.50%
- % control ([1]; 1 appl, 140 g ai/ha, 21 DAT): 87.50%
- % control ([1]; 1 appl, 280 g ai/ha, 14 DAT): 37.50%
- % control ([1]; 1 appl, 280 g ai/ha, 21 DAT): 90.00%
- % control ([1]; 2 appl, 140 g ai/ha, 14 DAT): 47.50%
- % control ([1]; 2 appl, 140 g ai/ha, 21 DAT): 87.50%
- % control ([1]; 2 appl, 280 g ai/ha, 14 DAT): 41.25%
- % control ([1]; 2 appl, 280 g ai/ha, 21 DAT): 90.00%
- % control ([2]; 1 appl, 140 g ai/ha, 5 DAT): 21.67%
- % control ([2]; 1 appl, 140 g ai/ha, 13 DAT): 86.67%
- % control ([2]; 1 appl, 140 g ai/ha, 21 DAT): 85.00%
- % control ([2]; 1 appl, 140 g ai/ha, 27 DAT): 88.33%
- % control ([2]; 1 appl, 140 g ai/ha, 35 DAT): 78.33%
- % control ([2]; 1 appl, 140 g ai/ha, 42 DAT): 76.67%
- % control ([2]; 1 appl, 140 g ai/ha, 61 DAT): 76.67%
- % control ([2]; 1 appl, 280 g ai/ha, 5 DAT): 25.00%
- % control ([2]; 1 appl, 280 g ai/ha, 13 DAT): 91.67%
- % control ([2]; 1 appl, 280 g ai/ha, 21 DAT): 90.00%
- % control ([2]; 1 appl, 280 g ai/ha, 27 DAT): 93.33%
- % control ([2]; 1 appl, 280 g ai/ha, 35 DAT): 91.67%
- % control ([2]; 1 appl, 280 g ai/ha, 42 DAT): 90.00%
- % control ([2]; 1 appl, 280 g ai/ha, 61 DAT): 90.00%
- % control ([2]; 2 appl, 140 g ai/ha, 5 DAT): 25.00%
- % control ([2]; 2 appl, 140 g ai/ha, 13 DAT): 88.33%
- % control ([2]; 2 appl, 140 g ai/ha, 21 DAT): 86.67%
- % control ([2]; 2 appl, 140 g ai/ha, 27 DAT): 91.67%
- % control ([2]; 2 appl, 140 g ai/ha, 35 DAT): 96.00%
- % control ([2]; 2 appl, 140 g ai/ha, 42 DAT): 96.67%
- % control ([2]; 2 appl, 140 g ai/ha, 61 DAT): 100.00%
- % control ([2]; 2 appl, 280 g ai/ha, 5 DAT): 26.67%
- % control ([2]; 2 appl, 280 g ai/ha, 13 DAT): 95.00%
- % control ([2]; 2 appl, 280 g ai/ha, 21 DAT): 93.33%
- % control ([2]; 2 appl, 280 g ai/ha, 27 DAT): 95.00%
- % control ([2]; 2 appl, 280 g ai/ha, 35 DAT): 99.33%
- % control ([2]; 2 appl, 280 g ai/ha, 42 DAT): 100.00%
- % control ([2]; 2 appl, 280 g ai/ha, 61 DAT): 100.00%
- % damage (Tall fescue; 210 g/ha): 0%
- % damage (Tall fescue; 280 g/ha): 0%
- % damage (Perennial ryegrass; 210 g/ha): 0%
- % damage (Perennial ryegrass; 280 g/ha): 0%
- % damage (Clover; 210 g/ha): 88%
- % damage (Clover; 280 g/ha): 92%
- % damage (Kentucky blue grass; 210 g/ha): 0%
- % damage (Kentucky blue grass; 280 g/ha): 0%
- % phytotoxicity ([3]; Granule A (inert), 112 g ai/ha, 11 DAT): 1.30%
- % phytotoxicity ([3]; Granule A (inert), 112 g ai/ha, 15 DAT): 0.70%
- % phytotoxicity ([3]; Granule A (inert), 112 g ai/ha, 28 DAT): 0.00%
- % phytotoxicity ([3]; Granule A (inert), 280 g ai/ha, 20 DAT): 0.00%
- % phytotoxicity ([3]; Granule A (inert), 280 g ai/ha, 28 DAT): 0.00%
- % phytotoxicity ([3]; Granule B (fertiliser), 112 g ai/ha, 20 DAT): 1.30%
- % phytotoxicity ([3]; Granule B (fertiliser), 112 g ai/ha, 28 DAT): 0.00%
- % phytotoxicity ([3]; Granule B (fertiliser), 280 g ai/ha, 7 DAT): 36.70%
- % phytotoxicity ([3]; Granule B (fertiliser), 280 g ai/ha, 15 DAT): 11.70%
- % phytotoxicity ([3]; Granule B (fertiliser), 280 g ai/ha, 20 DAT): 5.00%
- % phytotoxicity ([3]; Granule B (fertiliser), 280 g ai/ha, 28 DAT): 1.70%
- % phytotoxicity ([3]; Spray, 112 g ai/ha, 7 DAT): 36.70%
- % phytotoxicity ([3]; Spray, 112 g ai/ha, 11 DAT): 20.00%
